Results from US20260317357A1, “HETEROCYCLIC COMPOUNDS AS STING AGONISTS” (LigaChem Biosciences Inc., priority 2022, published 2026).

Columns and labels:
hSTING-H232 = biological target: T1, hSTING-H232 (Homo sapiens, UniProt Q86WV6); experiment: STING agonist activity, THP1 Dual reporter cells with STING H232 variant; assay type: cell-based; details: IRF luciferase, 24 hours
T1 construct: host or cells: THP1 Dual KI-hSTING (STING HAQ gene removed, H232 variant gene introduced)
Experimental: (§1) In order to evaluate the activity of the STING agonist, reporter cells from Invivogen were used. The cell lines used in the experiment were THP1 Dual™ (InvivoGen #thpd-nfis) expressing the endogenous STING variant HAQ and THP1 Dual™ KI-hSTING-R232 (InvivoGen #thpd-r232/h232) into which the STING R232 or H232 variant gene was injected after removing the STING HAQ gene. The cell lines have a luciferase reporter gene inserted below the IFN regulatory factor (IRF) promoter, and thus the activity of the IFN regulatory factor (IRF) mechanism can be evaluated through luciferase expression.
(§2) The reporter cells were plated at 9.0×10^4 cells/100 μL per well in a 96-well plate using RPMI 1640 medium (Gibco, #22400097) supplemented with 10% heat-inactivated FBS and 1×Antibiotic-Antimycotic (Gibco, #15240062), 10 μg/mL blasticidin (Gibco, #A1113902), and 100 μg/mL Zeocin (Gibco, #R25005). The plated cells were cultured at 37° C., 5% CO2 for 24 hours, and then treated with 100 μL of the serially diluted compound in each well, and then cultured at 37° C., 5% CO2 for 24 hours. After culturing, 20 μL of the cell culture medium was transferred to a 96 well white plate, and QUANTI-Luc™ (InvivoGen #rep-qlcl) was added at 50 µL/well. Using a microplate reader (Perkin Elmer), the value of the luminescence signal increased in the experimental group treated with the drug compared to the control group not treated with the drug was calculated. EC50 values were derived according to the concentration of the compound using GraphPad Prism.

[1] = In vitro cell cytotoxicity in CD34+ HSC (CellTiter-Glo); assay type: cell-based; details: cd34+ hscs
Experimental: The CD34^+ hematopoietic stem cells (HSCs) were purchased from […]™ (#70002.3). The cells (2×10^4 cells per well) were cultured in StemSpan™ SFEM II medium supplemented with StemSpan™ CD34+ Expansion Supplement (#02691) in a 6-well plate at 37° C. for 7 days. On day 3 or 4, an equal volume of fresh complete medium was added into the cell culture. On day 7, the cells (4×10^4 cells per well) were seeded in a 96-well white plate and rested for 24 hours in the same condition.
After 72 hours, the cell viability was measured using CellTiter-Glo Luminescent Cell Viability Assay (Promega, #G7573) according to the manufacture's instruction. The signal was detected using an EnVision Xcite multilabel reader and data were analyzed using GraphPad Prism 8 software.

[2] = In vitro cell cytotoxicity in PBMCs (CellTiter-Glo); assay type: cell-based
Experimental: PBMCs were also purchased from […]™ (#700025.2). The cells (8.0×10^4 cells per well) were seeded in a flat-bottomed 96-well plate in RPMI 1640 medium (Gibco, #22400097) with 10% heat-inactivated FBS and 1×Antibiotic-Antimycotic (Gibco, #15240062) and rested for 24 hours at 37° C. […] After 72 hours, the cell viability was measured using CellTiter-Glo Luminescent Cell Viability Assay (Promega, #G7573) according to the manufacture's instruction. The signal was detected using an EnVision Xcite multilabel reader and data were analyzed using GraphPad Prism 8 software.
To verify the effect of the STING agonist compounds in normal cell cytotoxicity, the PBMCs were treated with the STING agonist compounds for 3 days and measured the percentage of cell death.

hSTING-HAQ = biological target: T2, hSTING-HAQ (Homo sapiens, UniProt Q86WV6, G230A/H232R/R293Q/R71H); experiment: STING agonist activity, THP1 Dual reporter cells expressing endogenous STING variant HAQ; assay type: cell-based; details: IRF luciferase, 24 hours
T2 construct: expressing the endogenous STING variant HAQ; host or cells: THP1 Dual
Experimental: as §1, §2

hSTING-R232 = biological target: T3, hSTING-R232 (Homo sapiens, UniProt Q86WV6, H232R); experiment: STING agonist activity, THP1 Dual KI-hSTING-R232 IRF luciferase reporter cells; assay type: cell-based; details: 24 hours
T3 construct: host or cells: THP1 Dual KI-hSTING-R232 (STING HAQ gene removed, R232 variant gene introduced)
Experimental: as §1, §2

human STING = biological target: T4, human STING (Homo sapiens, UniProt Q86WV6); experiment: Direct binding potency, HUMAN STING WT BINDING KIT (Cisbio); details: in vitro
T4 construct: purchased Cisbio #64BDSTGPEG
Description: Additionally, or analysis of direct binding potency of STING agonist compounds described herein to human STING, HUMAN STING WT BINDING KIT (Cisbio, #64BDSTGPEG) was used according to the manufacturer's instruction.

[3] = Pharmacokinetics in Balb/C mouse after single IV dose; assay type: in vivo; details: 1.5 mg/kg; for AUC(0-inf) / AUC(0-t) / C0 / Cmax / AUC∞, norm / Cmax, norm: n = 3, plasma; for AUC∞, norm / Cmax, norm: dose-normalized; for clearance / half-life / Vd: plasma; for clearance / half-life: n = 3; for Vd: n = 3, read-out: VSS
Experimental: For in vivo evaluation of STING agonist compounds described herein in naïve Balb/C mouse, single doses of STING agonist compounds were given at 1.5 mg/kg intravenously into female BALB/c mice (Orientbio, South Korea) at 6-8 weeks of age. Pharmacokinetics were studied following injection of the STING agonist compounds into Balb/C mice. Plasma samples were taken at various time points and stored frozen for analysis. The plasma concentrations of the STING agonist compounds at the indicated time points were measured using a LC-MS/MS analysis method.
Briefly, 250 μL of acetonitrile (ACN) solution was added in both 50 µL of sample and 50 µL of plasma containing 10 nM Dextromethorphan (internal standard), and the solutions were mixed vigorously using a vortex mixer for 5 minutes. The samples were then spun down at 14,000 rpm, 4° C. for 5 minutes. 100 μL of supernatants were combined with 100 μL of mobile phase A (0.1% formic acid in water with 5% ACN) and mixed thoroughly. The samples were measured for the STING agonist compounds using a LC-MS/MS (Nexera LC40 (SHIMADZU) and QTRAP4500 (SCIEX)).

T1 sequence (Q86WV6 whole entry): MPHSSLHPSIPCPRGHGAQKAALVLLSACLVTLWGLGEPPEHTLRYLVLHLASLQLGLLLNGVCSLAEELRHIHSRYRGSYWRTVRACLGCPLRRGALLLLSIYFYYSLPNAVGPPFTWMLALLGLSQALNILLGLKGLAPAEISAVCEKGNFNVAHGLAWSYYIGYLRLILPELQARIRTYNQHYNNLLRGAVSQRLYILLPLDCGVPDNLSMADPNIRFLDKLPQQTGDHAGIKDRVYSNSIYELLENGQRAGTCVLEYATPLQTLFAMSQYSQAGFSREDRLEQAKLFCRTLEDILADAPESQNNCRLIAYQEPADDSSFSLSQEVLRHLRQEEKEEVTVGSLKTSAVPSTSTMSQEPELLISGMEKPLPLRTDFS
T2 sequence (Q86WV6 whole entry R71H/G230A/H232R/R293Q): as the sequence (Q86WV6 whole entry) above, with R71H, G230A, H232R, R293Q counted along it
T3 sequence (Q86WV6 whole entry H232R): as the sequence (Q86WV6 whole entry) above, with H232R counted along it
T4 sequence (Q86WV6 whole entry): as the sequence (Q86WV6 whole entry) above

SMILES	EC50 (hSTING-H232)	CC50 at 72 h [1]	CC50 at 72 h [2]	EC50 (hSTING-HAQ)	EC50 (hSTING-R232)	EC50 (human STING)	AUC(0-inf) [3]	AUC(0-t) [3]	C0 [3]	Cmax [3]	AUC∞, norm [3]	Cmax, norm [3]	clearance [3]	half-life [3]	Vd [3]
CCn1nc(C)cc1C(=O)Nc1nc2cc(C(N)=O)cc(OC)c2n1C/C=C/Cn1c(NC(=O)c2cc(C)nn2CC)nc2cc(C(N)=O)cc(OC/C=C/CN3CCNCC3=O)c21 [Compound 28]	9.5 nM	24.9 nM	12.7 nM	15.5 nM	3.37 nM	–	–	–	–	–	–	–	–	–	–
CCn1nc(C)cc1C(=O)Nc1nc2cc(C(N)=O)cc(OC)c2n1C/C=C/Cn1c(NC(=O)c2cc(C)nn2CC)nc2cc(C(N)=O)cc(OC/C=C/Cn3cc(N)cn3)c21 [Compound 55]	5.5 nM	7.9 nM	4 nM	6.3 nM	0.5 nM	0.22 nM	5160 ± 120 ng·h/mL	5110 ± 120 ng·h/mL	21100 ± 2210 ng/mL	14100 ± 590 ng/mL	3.44 ± 0.08 kg·h/L	9.42 ± 0.39 kg/L	4.83 mL/min/kg	72 ± 4.8 min	0.15 L/kg
CCn1nc(C)cc1C(=O)Nc1nc2cc(C(N)=O)cc(OC/C=C/Cn3cc(N)cn3)c2n1C/C=C/Cn1c(NC(=O)c2cc(C)nn2CC)nc2cc(C(N)=O)cc(OCCCC(=O)O)c21 [Compound 65]	7 nM	3.9 nM	18.5 nM	25.5 nM	1.7 nM	0.43 nM	440 ± 440 ng·h/mL	430 ± 50 ng·h/mL	1300 ± 430 ng/mL	960 ± 170 ng/mL	0.29 ± 0.03 kg·h/L	0.64 ± 0.11 kg/L	57.5 mL/min/kg	28.2 ± 4.8 min	1.58 ± 0.13 L/kg
